Test results taken from patent US8633019B2, “Methods for treating spinal muscular atrophy” (PTC Therapeutics, Inc., priority 2008, dated 2014).

System: inclusion of exon 7 of SMN2 into mRNA transcribed from the SMN2-A minigene
Experiment: Fold Activation: luciferase reporter, SMN2-A minigene construct versus SMN2-G minigene construct, in stably transfected HEK293H cells
Format: cell-based, human
Settings: ratio of First Activation using the SMN2-A construct divided by Second Activation using the SMN2-G construct
Description: In a specific embodiment, the first cell and the second cell are the same cell type. In some embodiments, the first cell and the second cell are the same cell type and are obtained from the same source or clone. In some embodiments, the first reporter gene and the second reporter gene are the same reporter gene. In other embodiments, the first reporter gene and second reporter gene are different reporter genes. A compound that increases the inclusion of exon 7 of SMN2 into mRNA transcribed from the SMN2 gene will result in a Fold Activation derived from a higher ratio of the First Activation:
[formula] [formula] [formula] In some embodiments, both the amount and activity of the first and second fusion proteins are detected. Accordingly, as used herein, the Fold Activation for a compound that modulates the inclusion of exon 7 of SMN2 into mRNA transcribed from the SMN2 gene is a ratio of the First Activation divided by the Second Activation.
The HEK293H cell line stably transfected with the SMN2-A minigene construct was utilized in the HTS. HTS was performed by plating 10,000 cells in each well of a 384-well plate. Each 384-well plate contained 64 control wells used as an internal standard: 16 wells were used as a total control (no test compound, only compound solvent), 16 wells were used as reference standards representing background readings (high inhibitor concentration) and 32 wells were prepared to provide an 8-point dose response curve of puromycin as a non-specific standard control inhibitor. The remaining 320 wells contained individual test compounds. The cells were grown overnight in the presence of test compounds or controls at 37° C. in 5% CO2. After 24 hours, the amount of luminescence was determined using a ViewLux Imaging system (Perkin Elmer).
Using the SMN2-A minigene construct, a HTS was performed testing a compound library. The amount of the fusion protein expressed from the minigene construct was determined by measuring luciferase activity as described herein. […] Enhancers of fusion protein expression were defined as those compounds that increased luciferase activity by at least three standard deviations above the mean. Based on this analysis, test compounds of Formula (I) were identified as hits and were subsequently confirmed by testing the compounds under the same conditions as in the original HTS. To ensure that the increase in luciferase activity detected in the HTS was due to increased inclusion of exon 7 of SMN2 into mRNA transcripts from the SMN2-A minigene construct, each compound was tested in two different cell lines: the cell line, which was used in the original HTS (HEK293H containing the SMN2-A minigene construct), and a HEK293H cell line that contained the SMN2-G minigene construct.
Each compound was tested at four concentrations: 15 μM, 3 μM, 0.6 μM, 0.12 μM.
The Fold Activation results are provided as a ratio of a First Activation using the SMN-2A construct divided by a Second Activation using the SMN-2G construct, wherein 1 star (*) represents active compounds with a fold increase ratio between 1.1-1.3; 2 stars (**) represent active compounds with a fold increase ratio between 1.3-2.0; 3 stars (***) represent active compounds with a fold increase ratio greater than 2.0.

Compound | Activity (Fold Activation)
O=C(O)c1cccc(-c2nc3ccc(N4CCOCC4)cc3o2)c1 [Cpd 42, 3-(6-morpholin-4-yl-benzooxazol-2-yl)-benzoic acid] | ** (2 stars (**) represent active compounds with a fold increase ratio between 1.3-2.0)
O=C(O)c1ccc2oc(-c3ccc(F)cc3)nc2c1 [Cpd 55, 2-(4-fluoro-phenyl)-benzooxazole-5-carboxylic acid] | * (1 star (*) represents active compounds with a fold increase ratio between 1.1-1.3)
CN(Cc1ccccc1)c1ccc2nc(-c3cccc(C(=O)O)c3)oc2c1 [Cpd 102, 3-[6-(benzyl-methyl-amino)-benzooxazol-2-yl]-benzoic acid] | ** (2 stars (**) represent active compounds with a fold increase ratio between 1.3-2.0)
O=C(O)c1ccc2oc(-c3ccc(Br)cc3)nc2c1 [Cpd 35, 2-(4-bromo-phenyl)-benzooxazole-5-carboxylic acid] | ** (2 stars (**) represent active compounds with a fold increase ratio between 1.3-2.0)
O=C(O)c1ccc2oc(-c3ccc(N4CCCC4=O)cc3)nc2c1 [Cpd 28, 2-[4-(2-oxo-pyrrolidin-1-yl)-phenyl]-benzooxazole-5-carboxylic acid] | ** (2 stars (**) represent active compounds with a fold increase ratio between 1.3-2.0)
O=C(O)c1cccc(-c2nc3cc(-c4ccc(F)c(F)c4)ccc3o2)c1 [Cpd 30, 3-[5-(3,4-difluoro-phenyl)-benzooxazol-2-yl]-benzoic acid] | ** (2 stars (**) represent active compounds with a fold increase ratio between 1.3-2.0)
Cc1ccc2oc(-c3cccc(C(=O)O)c3)nc2c1 [Cpd 21, 3-(5-methyl-benzooxazol-2-yl)-benzoic acid] | *** (3 stars (***) represent active compounds with a fold increase ratio greater than 2.0)
COc1ccc2oc(-c3cccc(C(=O)O)c3)nc2c1 [Cpd 32, 3-(5-methoxy-benzooxazol-2-yl)-benzoic acid] | *** (3 stars (***) represent active compounds with a fold increase ratio greater than 2.0)
Cc1cc(C)cc(-c2ccc3oc(-c4cccc(C(=O)O)c4)nc3c2)c1 [Cpd 37, 3-[5-(3,5-dimethyl-phenyl)-benzooxazol-2-yl]-benzoic acid] | * (1 star (*) represents active compounds with a fold increase ratio between 1.1-1.3)
Cc1ccc2nc(-c3cccc(C(=O)O)c3)oc2c1 [Cpd 2, 3-(6-methyl-benzooxazol-2-yl)-benzoic acid] | * (1 star (*) represents active compounds with a fold increase ratio between 1.1-1.3)
O=C(O)c1cccc(-c2nc3cc(-c4cc5ccccc5o4)ccc3o2)c1 [Cpd 31, 3-(5-benzofuran-2-yl-benzooxazol-2-yl)-benzoic acid] | ** (2 stars (**) represent active compounds with a fold increase ratio between 1.3-2.0)
CCC(C)(C)c1ccc2oc(-c3cccc(C(=O)O)c3)nc2c1 [Cpd 22, 3-[5-(1,1-dimethyl-propyl)-benzooxazol-2-yl]-benzoic acid] | ** (2 stars (**) represent active compounds with a fold increase ratio between 1.3-2.0)
O=C(O)c1cccc(-c2nc3ccc(N4CCCCC4)cc3o2)c1 [Cpd 41, 3-(6-piperidin-1-yl-benzooxazol-2-yl)-benzoic acid] | *** (3 stars (***) represent active compounds with a fold increase ratio greater than 2.0)
CN1CCCN(c2ccc3nc(-c4cccc(C(=O)O)c4)oc3c2)CC1 [Cpd 81, 3-[6-(4-methyl-[1,4]diazepan-1-yl)-benzooxazol-2-yl]-benzoic acid] | * (1 star (*) represents active compounds with a fold increase ratio between 1.1-1.3)
O=C(O)c1ccc2oc(-c3cccc(OC(F)(F)F)c3)nc2c1 [Cpd 105, 2-(3-trifluoromethoxy-phenyl)-benzooxazole-5-carboxylic acid] | * (1 star (*) represents active compounds with a fold increase ratio between 1.1-1.3)
O=C(O)c1ccc2nc(-c3ccccc3F)oc2c1 [Cpd 66, 2-(2-fluoro-phenyl)-benzooxazole-6-carboxylic acid] | *** (3 stars (***) represent active compounds with a fold increase ratio greater than 2.0)
NC(=O)c1cccc(-c2nc3ccc(Nc4ccccc4)cc3o2)c1 [Cpd 106, 3-(6-phenylamino-benzooxazol-2-yl)-benzamide] | * (1 star (*) represents active compounds with a fold increase ratio between 1.1-1.3)
NC(=O)c1cccc(-c2nc3ccc(NCCc4ccccc4)cc3o2)c1 [Cpd 73, 3-(6-phenethylamino-benzooxazol-2-yl)-benzamide] | * (1 star (*) represents active compounds with a fold increase ratio between 1.1-1.3)
O=C(O)c1cccc(-c2nc3ccc(C(=O)N4CCCC4)cc3o2)c1 [Cpd 71, 3-[6-(pyrrolidine-1-carbonyl)-benzooxazol-2-yl]-benzoic acid] | ** (2 stars (**) represent active compounds with a fold increase ratio between 1.3-2.0)
O=C(O)c1cccc(-c2nc3ccc(Oc4ccccc4)cc3o2)c1 [Cpd 82, 3-(6-phenoxy-benzooxazol-2-yl)-benzoic acid] | ** (2 stars (**) represent active compounds with a fold increase ratio between 1.3-2.0)
